Measurements taken from patent US9775854B2 (Indiana University Research and Technology Corp., priority 2006, dated 2017).
“Also recorded” adds a separate entry of the source.

Assays:
[1] = test system: IDUA and p53 genes; conditions: cited from earlier work
[2] = test system: UGAC stop codon; experiment: Stop codon readthrough assay; assay type: cell-based; conditions: 200 ug/ml, 24 hours
Experimental: The cells were exposed to 200 ug/ml of each compound for 24 hours.
The method used to assess readthrough is as follows.
In order to determine the optimal concentrations of the aminoglycosides to use in the mammalian translation system, increasing amounts of each aminoglycoside were added to a rabbit reticulocyte translation system while expressing the QX(N) (UGAC) construct. The effect of aminoglycoside addition on total protein synthesis was monitored by comparing the total amount of proteins synthesized in the presence and absence of various aminoglycosides. A range of aminoglycoside concentrations was then determined that allowed a maximal amount of termination suppression without inhibiting total protein synthesis more than two- to threefold. In vitro translation reactions were carried out using the TNT coupled transcription/translation system (Promega). […] The gel was dried and subjected to PhosphorImager analysis in order to quantitate the amount of truncated and full-length protein species. The percentage of readthrough was then calculated as the amount of full-length protein/(truncated+full-length species)×100.

[3] = test system: COS7 cells; experiment: Cytotoxicity (cell death, % inviability) in COS7 cells; assay type: cell-based
Experimental: Gentamicin and various congeners isolated and purified by, for example, the HPLC techniques outlined in Sandoval et al. were tested to assess their level of cytotoxicity. Briefly, COS7 cells were grown in the presence of either 200 or 500 ug/ml of one of the following test compounds, the C1 or the C2 congeners of gentamicin or native gentamicin. As a control still another batch of COS7 cells were grown in absence of all of the test compounds.
Referring now to FIG. 6 cell inviability was determined for cells exposed to no test compound, native gentamicin or a congener of gentamicin; in this graph a high value indicate […]. Cell death (% inviability) was determined for each of the six conditions.

[4] = test system: viable cells; experiment: Cytotoxicity by dye exclusion assay (FIG. 7); assay type: cell-based; conditions: viable cells treated vs untreated
Experimental: FIG. 7 also includes information on the cell toxicity. Cytotoxicity was measured by comparing the number of viable cells in treated and untreated samples using a dye exclusion assay of the compounds tested. […] (the […]) was the most toxic compound tested 4.4 fold more toxic than the control (no added aminoglycoside) followed by […] (native gentamicin) 1.7 times more toxic than the control; the least toxic compound tested was […]

[5] = test system: Bacillus subtilus; experiment: Bactericidal properties against Bacillus subtilus; assay type: cell-based
Experimental: (§1) Referring now to Formula 1 and FIG. 1, 4 congeners can be isolated and purified from native gentamicin. Methods for isolating and purifying congeners include the following method. Briefly, separation of native gentamicin was carried out using a C18 column (250×4.60 mm) and the chromatograms was developed using a Waters 600e HPLC pump (Milford, Mass.). A gradient of 100% of a 0.1% (vol/vol) mixture of tri-fluoro-acetic acid in acetonitrile was used to develop the chronogram. […] There was no overlap between adjacent peaks. For all studies, the same lot of gentamicin was used. This ensured that the results obtained were independent of potential alteration in the ratio of gentamicin components. […] For additional discussion of this methodology please see, for example, Sandoval, et al.

[6] = test system: LLC-PK1 proximal tubule cells; conditions: results provided in Sandoval et al.; cited from earlier work
[7] = test system: proximal convoluted tubules; experiment: Kidney morphology and histology in rats (H&E, PAS, modified Jablonski score, gentamicin immunofluorescence); assay type: in vivo, Sprague-Dawley rats; conditions: six doses
Experimental: Morphologic evaluation of injury caused by gentamicin and its congeners was assessed by grading the extent of necrosis of the proximal convoluted tubules. Injury scores were assigned on the basis of the predominant pattern present. For indirect immunofluorescence, 100 μm-thick sections were cut on a vibratome and stained with the monoclonal anti-gentamicin antibody (Biodesign International, Saco, Me.) and a fluorescein-conjugated secondary antibody (Jackson Immunoresearch, West Grove, Pa.) and lightly counterstained with Alexa 647 phalloidin (Molecular Probes) to localize filamentous actin for visualization using confocal microscopy.
Histological sections were viewed with a Wide field Nikon microscope with an attached color CCD camera (Nikon, Melville, N.Y.). Fluorescence images were acquired using a Bio-Rad MRC 1024 confocal microscope (Bio-Rad, Hercules, Calif.) on a Nikon platform (The Fryer Co., Huntley, Ill.). Co-localization studies with Texas Red dextran, FITC-Helixpontatia, and gentamicin were conducted on a Zeiss 510 confocal microscope with images illuminated and acquired sequentially to eliminate bleed-over emissions from the different fluorescence emission spectra.
Again, these studies were conducted after 7 days of exposure, or six doses of gentamicin. This was to ensure that we would see any delayed nephrotoxicity from the […]. These studies occurred at a time when the native gentamicin-treated animals were recovering, as evidenced by a reduction in serum creatinine levels in these animals. Therefore, these studies likely underestimate the actual histological damage that occurred early on in animals treated with native gentamicin. […] In addition, large perinuclear vacuoles (FIG. 3 B, arrowheads) could be seen in the renal corticol area. […] Here, proximal tubules from native gentamicin treated rats contained cast material and shed cells in the lumen (thick arrow). In addition, many of the proximal table cells contained large vacuoles that localized around the nucleus (FIG. 3 B, arrowheads).
Referring now to FIG. 3 D-E, thin histological sections also were stained with PAS to localize the glycocalyx that was associated with the brush border membrane of proximal tubules. […]
Referring now to FIG. 3 G-H, when tissues from rats that were exposed to the native commercial gentamicin compound or the […] of gentamicin were processed for indirect immunofluorescence localization of gentamicin, a difference in the intracellular accumulation and distribution emerged. […] Tissue sections from rats that were treated with normal saline alone and processed identically for immunofluorescence localization produced no fluorescence associated with gentamicin localization (data not shown).

[8] = test system: LLC-PK1 proximal tubule cells
Experimental: (§2) Differences in necrosis, apoptosis, and cell density among the various congeners on the human and porcine cell lines were determined using an ANOVA function with Systat 11 software (Systat Software, Point Richmond, Calif.). […] All reported values are mean±SEM.
The nuclear dye propidium iodide is cell impermeant and labels only necrotic cells, characterized by permeable cell membranes; co-localization of the two dyes gives a reddish-pink color. […] Values are means±SEM. Bar=approximately 10 microns.
The nuclear dyes propidium iodide and Hoechst 33342 were used as markers for necrosis and apoptosis, respectively.

[9] = Nephrotoxicity in rats: serum creatinine after six daily doses
Experimental: as §2
We specifically used six daily doses for these studies to allow additional time for the C2 component to induce injury, because it is widely known that serum creatinine rises early in this model when native gentamicin is used.

[10] = test system: Gram-positive and multi-drug-resistant Gram-negative bacteria; conditions: Sandoval et al.; cited from earlier work
[11] = test system: multi-drug resistant form of Klebsiella pneumoniae; experiment: Bactericidal properties against multi-drug resistant Klebsiella pneumoniae; assay type: cell-based
Experimental: as §1

[12] = test system: dystrophin; experiment: Dystrophin immunohistochemistry in mdx mice after i.m. treatment; assay type: in vivo; conditions: about 1 or 5 mg/day, 7 days
Experimental: Eight mdx mice are treated with I.M. injections of either gentamicin or the […] of gentamicin (C2 in Formula I) four of the mice receive either gentamicin or the […] at a dose of about 1 mg/day and the other four mice receive the same compounds at a dose of about 5 mg/day. The animals are dosed over a period of 7 days. […] All mice are sacrificed, their skeletal muscle and their hearts are frozen and cryostat sectioned. The presence of dystrophin in these sections is investigated by immunohistochemistry. Strong dystrophin immunostaining is observed in the normal skeletal and heart muscles. In the untreated mdx muscles, dystrophin immunostaining is observed only in a few revertant fibers. […] The dystrophin staining is less intense in the muscles of mice treated with […]. Therefore a dose of about 8 to 40 mg per Kg of body weight per day of either gentamicin or the […] of gentamicin successfully suppresses the premature stop codon by inserting an amino acid, and continuing translation of […] nucleic acids. Subcutaneous and intravenous administration will provide the same results. The duration of the course of treatment may vary. […]

[13] = test system: LLC-PK1 cells; experiment: Long-term (24 h) exposure: lysosome and Golgi complex localization in LLC-PK1 cells; conditions: 24 h of continuous exposure
Experimental: During this period of exposure to native gentamicin or the congeners, lysosomes were labeled by adding a 10,000 molecular weight rhodamine dextran to the culture medium (0.5 mg/ml; Molecular Probes). The cells then were fixed and stained for indirect immunofluorescence and visualized via confocal microscopy. Briefly, the Golgi complex was localized with a fluorescein-conjugated lectin from Helix pornotia at 5 μg/ml (EY Laboratories, San Mateo, Calif.) diluted in solution that contained the CY-5 conjugated secondary antibody that was used in the indirect immunolocalization of gentamicin. Visualization of nonlysosomal, cytosolic gentamicin was carried out as described previously, using a Tyramide Signal Amplification (Molecular Probes).
In order to study long-term differences in the intracellular distribution of gentamicin, we undertook additional study of gentamicin distribution in LLC-PK1 cells. […]

[14] = LLC-PK1 cells, 24 hours of exposure

In the case of NCC[C@H](O)C(=O)N[C@@H]1C[C@H](N)[C@@H](O[C@H]2O[C@H](CN)[C@@H](O)[C@H](O)[C@H]2O)[C@H](O)[C@H]1O[C@H]1O[C@H](CO)[C@@H](O)[C@H](N)[C@H]1O [Amikacin], the “premature stop codons overcome” value [1] is given as “can be overcome”.

For NC[C@H]1O[C@H](O[C@H]2[C@H](O)[C@@H](O[C@H]3O[C@H](CO)[C@@H](O)[C@H](N)[C@H]3O)[C@H](N)C[C@@H]2N)[C@H](N)C[C@@H]1O [Tobramicin], the “premature stop codons overcome” value [1] is given as “not”.

For gentamicin C1 [reference compound], the “readthrough of the UGAC stop codon” value [2] was “minimal readthrough”, the “toxicity ranking (cell death, % inviability)” value ([3]; 200 or 500 ug/ml) was “greatest toxicity” and the “toxicity relative to control (no added aminoglycoside)” value [4] was 4.4 fold.

For gentamicin C2, the bactericidal properties [5] is listed as “excellent bactericidal properties”, the “readthrough of the UGAC stop codon” value [2] is listed as “intermediate effect on readthrough” and the “toxicity in cell culture” value [6] is listed as “nontoxic”. The “renal injury, modified Jablonski score” value ([7]; rat cortex, compared with native gentamicin) was “significantly reduced; also recorded: significantly lower”, the “kidney morphology, H&E-stained sections” value ([7]; rats, 7 days of exposure) was “normal morphology” and the “lysosomal morphology in proximal tubule cells, indirect immunofluorescence” value ([7]; rats, 7 days of exposure) was “normal lysosomal morphology”. The “proximal tubular brush border, PAS staining” value ([7]; rats, 7 days of exposure) was “more abundant and enriched PAS staining”, the “toxicity (cell death, % inviability)” value ([3]; 200 ug/ml) was “virtually no toxicity” and the “toxicity (cell death, % inviability)” value ([3]; 500 ug/ml) was “only very minimal toxicity”. For the same compound, the “cell density, % of untreated (control) values” [8, 14] was 80.3±5.7%, the “percentage of cell death (toxicity index)” value [8, 14] was 3.1±1.3% and the “cytotoxicity in cell culture (in words)” value ([8]; cultured cells, 24 hours of continual exposure) was “minimal cytotoxicity; also recorded: markedly reduced toxicity; also recorded: minimal evidence of toxicity”. For the same compound, the “change in serum creatinine (in words)” value ([9]; 100 mg/kg per day intraperitoneally, six daily doses) was “no elevation in serum creatinine”, the serum creatinine ([9]; 100 mg/kg per day intraperitoneally, six daily doses, up to 24 hours after the last injection) was at most 0.2 mg/dL and the “functional and pathologic changes characteristic of gentamicin nephrotoxicity” value ([9]; animal studies) was “failed to induce”. For the same compound, the “bactericidal potency compared with native gentamicin and other congeners” value [10] was “as potent a bactericide”, the bactericidal properties [11] was “excellent bactericidal properties” and the “dystrophin immunostaining in skeletal and heart muscle” value [12] was “detected by immunohistochemistry on all muscle fibers and all heart muscle cells”. For the same compound, the “toxicity relative to control (no added aminoglycoside)” value [4] was “no more toxic than the control”, the “Golgi complex staining with Helix pomatia lectin” value [13] was “faint” and the “lysosome appearance (Texas Red dextran)” value [13] was “small, discrete vesicles found throughout the cellular cytosol”.
